Measured values from ChEMBL document CHEMBL4257554, “On the inhibition of capsaicin response in dorsal root ganglion neurons by nobilamide B and analogues: a structure-activity relationship study” (Medchemcomm, 2018).
Non-standard residues stand in square brackets, D forms with d. Residues, ends and D or L forms follow the SMILES beside them. *: point of attachment. d(aThr) = C[C@@H](O)[C@@H](N)C(=O)O; Dhb = C/C=C(\N)C(=O)O; Propionyl = CCC(=O)*

What follows are compounds tested against Transient receptor potential cation channel subfamily V member 1 (Mus musculus) (UniProt Q704Y3) (assay: Antagonist activity at TRPV1 channel in mouse DRG neurons assessed as inhibition of capsaicin-induced calcium accumulation at 300 uM incubated for 6 mins by Fura-2-AM dye based fluorescence assay relative to control).
Transient receptor potential cation channel subfamily V member 1 (Mus musculus), sequence (Q704Y3 whole entry): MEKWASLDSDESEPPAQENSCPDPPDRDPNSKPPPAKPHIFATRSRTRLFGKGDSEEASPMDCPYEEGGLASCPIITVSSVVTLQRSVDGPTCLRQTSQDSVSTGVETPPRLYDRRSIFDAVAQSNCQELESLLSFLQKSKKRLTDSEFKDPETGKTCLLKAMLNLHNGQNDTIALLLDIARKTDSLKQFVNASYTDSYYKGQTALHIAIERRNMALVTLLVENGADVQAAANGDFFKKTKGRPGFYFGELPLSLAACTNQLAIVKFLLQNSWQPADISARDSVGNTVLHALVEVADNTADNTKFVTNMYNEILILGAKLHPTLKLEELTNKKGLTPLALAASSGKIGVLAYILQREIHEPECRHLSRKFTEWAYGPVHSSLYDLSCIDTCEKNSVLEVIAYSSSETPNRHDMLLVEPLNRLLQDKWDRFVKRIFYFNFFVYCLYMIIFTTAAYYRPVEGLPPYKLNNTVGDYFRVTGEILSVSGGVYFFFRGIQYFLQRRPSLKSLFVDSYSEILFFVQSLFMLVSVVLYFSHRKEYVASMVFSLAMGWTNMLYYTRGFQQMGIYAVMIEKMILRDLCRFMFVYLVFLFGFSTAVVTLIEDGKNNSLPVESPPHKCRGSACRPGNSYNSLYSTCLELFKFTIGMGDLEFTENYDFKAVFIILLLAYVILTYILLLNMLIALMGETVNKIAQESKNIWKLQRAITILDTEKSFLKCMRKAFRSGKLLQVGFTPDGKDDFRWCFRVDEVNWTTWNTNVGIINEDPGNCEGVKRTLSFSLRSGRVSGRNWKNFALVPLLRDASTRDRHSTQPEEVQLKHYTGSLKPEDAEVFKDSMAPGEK
`C/C=C(\NC(=O)[C@H](C)NC(=O)[C@H](C)NC(=O)[C@H](NC(=O)[C@H](Cc1ccccc1)NC(=O)[C@@H](CC(C)C)NC(=O)[C@@H](Cc1ccccc1)NC(=O)CC)[C@@H](C)O)C(=O)O` gave an inhibition of 27.8%.
In the case of `C/C=C(\NC(=O)[C@H](C)NC(=O)[C@@H](NC(=O)[C@H](NC(=O)[C@H](Cc1ccccc1)NC(=O)[C@H](C)NC(=O)[C@@H](Cc1ccccc1)NC(=O)CC)[C@@H](C)O)C(C)C)C(=O)O`, the inhibition is reported as 3.27%.
`CCC(=O)N[C@H](Cc1ccccc1)C(=O)N[C@H](CC(C)C)C(=O)N[C@@H](Cc1ccccc1)C(=O)N[C@@H](C(=O)N[C@H](C(=O)N[C@@H](C)C(=O)N[C@@H](C)C(=O)O)C(C)C)[C@@H](C)O` gave an inhibition of 35.6%.
`C/C=C(\NC(=O)[C@H](C)NC(=O)[C@@H](NC(=O)[C@H](NC(=O)[C@H](Cc1ccccc1)NC(=O)[C@@H](CC(C)C)NC(=O)[C@H](C)NC(=O)CC)[C@@H](C)O)C(C)C)C(=O)O` was tested, and the inhibition was 6.47%.
With `C/C=C(\NC(=O)[C@H](C)NC(=O)[C@@H](NC(=O)[C@H](NC(=O)[C@H](Cc1ccccc1)NC(=O)[C@@H](CC(C)C)NC(=O)[C@@H](Cc1ccccc1)NC(=O)CC)[C@@H](C)O)C(C)C)C(=O)O` (Propionyl-[dF][dL]F[d(aThr)]VA[Dhb]-OH) the inhibition was 33.6%.
Compound `C/C=C(\NC(=O)[C@H](C)NC(=O)[C@@H](NC(=O)[C@H](NC(=O)[C@H](C)NC(=O)[C@@H](CC(C)C)NC(=O)[C@@H](Cc1ccccc1)NC(=O)CC)[C@@H](C)O)C(C)C)C(=O)O` has an inhibition of 23.5%.
`C/C=C(\NC(=O)[C@H](C)NC(=O)[C@@H](NC(=O)[C@H](C)NC(=O)[C@H](Cc1ccccc1)NC(=O)[C@@H](CC(C)C)NC(=O)[C@@H](Cc1ccccc1)NC(=O)CC)C(C)C)C(=O)O` showed an inhibition of 5.38%.
